Structures are written as SMILES.

The source of these data is patent EP0686425A1, “PROCESS FOR PRODUCING MICROCAPSULE OF HYDROPHOBIC DRUG” (SANSUI CO., LTD., priority 1993, dated 1995).

Data set [1] concerns Japan white breeding rabbits. Particulars: rabbit, in vivo. On the procedure: Six medically inspected Japan white breeding rabbits (conventional) were given a haircut along the spine and 6 spots of 2x3 cm each were closed patched with 0.5 g of Composition No.6 powder or 0.25 g of a powder of the compound represented by chemical formula 2 using bandage and gauze. Evaluation was conducted for the degree of erythema, scab formation and edema formation at a time interval of after 4 hours, 1 day, 2 days, 3 days, 4 days and 5 days.
Evaluation standard (Draize method)
From the above table, the following primary irritancy was obtained. Irritation index was obtained from Equation 1. Irritation index was obtained from the following table. Irritation index and safety classification are as follows. [formula]
Evaluation was conducted according to the method employed in Example 6.

The conditions of data set [2]: cited from earlier work; for solubility in water: temperature not given.
A short description of data set [3]: Elution test of microcapsule powder in Isopal G. Particulars: unencapsulated compound of chemical formula 1, temperature not given. The class given is physicochemical. On the procedure: Elution test was conducted on microcapsule powder using Isopal G (aliphatic solvent EXXON Chemical company) which dissolves the compound of the chemical formula 1 in an optional rate. […] of the capsule powder was added to 10ml of Isopal G, and the mixture was maintained at room temperature or at 40 °C for 12 hours, and the amount of the compound of the chemical formula 1 eluted from the microcapsules was determined by gas chromatography. The rate of elution (active ingredient in Isopal G/added amount of active ingredient) was calculated.

On to `CCCCCCCCn1sc(Cl)c(Cl)c1=O` [Compound of formula 4, 4,5-Dichloro-2-n-octyl-4-isothiazoline-3-one], for which the “Skin irritation, safety classification (irritation index)” value in data set [1] is given as “strong irritation”. Moreover, in data set [2], the “water solubility (25 °C)” value was 6 ppm.
With `N#CSCSc1nc2ccccc2s1` [Compound of the chemical formula 7, thiocyano methylthiobenzothiazol], the “Skin irritation, safety classification (irritation index)” value in data set [1] is given as “medium irritant”. For the same compound, the solubility in water in data set [2] is 100 ppm.
Consider `S=C=Nc1ccc(Cl)c(Cl)c1` [Unencapsulated, 3,4-dichlorophenyl-isothiocyanate], for which the “rate of elution (active ingredient in Isopal G/added amount of active ingredient)” value in data set [3] was 100% elution.
On to `O=S1(=O)CC(Cl)(Cl)C(Cl)(Cl)C1` [compound of the chemical formula 2, Tetrachlorotetrahydrothiophene-1,1-dioxide], for which the “water solubility (25 °C)” value in data set [2] was “about 900 ppm”.
`CNC(=O)Oc1cccc2c1OC(C)(C)C2` [compound of the chemical formula 6, 2,3-dihydro-2,2-dimethylbenzofuran-7-yl-methylcarbamate]: the solubility in water in data set [2] is 700 ppm.
